Target: T1, porcine S100A12 (Calgranulin C) (Sus scrofa, UniProt P80310)
T1 construct: pET28a-S100A12 in E. coli BL21(DE3); N-terminal or other His-tag cut with thrombin; non-covalent antiparallel homodimer; apo form in SPR
T1 sequence (P80310 1-92 limits assumed): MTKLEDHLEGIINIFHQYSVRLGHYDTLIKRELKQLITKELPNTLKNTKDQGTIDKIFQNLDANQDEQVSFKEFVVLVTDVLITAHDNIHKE
Experiment: SPR, Biacore X, L1 sensorchip, immobilized LUVs
Format: binding
Source text: SPR, Biacore X, L1 sensorchip, immobilized LUVs on porcine S100A12 (Calgranulin C)

Kd	Structure (SMILES)
5.9 µM	CCCCCCCCCCCCCCCC(=O)OC[C@H](COP(=O)([O-])OCC[N+](C)(C)C)OC(=O)CCCCCCCCCCCCCCC [DPPC, 1,2-dipalmitoyl-sn-glycero-3-phosphocholine]
0.63 µM	CCCCCCCCCCCCCCCC(=O)OC[C@H](COP(=O)(O)OCC(O)CO)OC(=O)CCCCCCCCCCCCCCC (some centres unmarked) [DPPG, 1,2-dipalmitoyl-sn-glycero-3-phosphoglycerol]
